≈ marks a conversion by molar mass, not a printed value.
Tests used:
IL-18 = IL-18 release in supernatants of LPS-treated primary microglial cells (ELISA); assay type: cell-based, Wistar rats; settings: 72 h; for IL-18 release: LPS-treated
Method: (§1) Primary microglial cell cultures were prepared from brains of newborn Wistar rats. Ethics approval for the experiments was granted by the EBIOTEC Review Board (Valter Lombardi, Iván Carrera and Lucía Fernández-Novoa; Project Identification Code: Sinularia Project October 2013; approved 30 October 2013). The neocortex of one-day-old postnatal rats was aseptically dissected out, and the meninges and blood vessels were carefully removed. Following cutting in a medium containing 20% horse serum, the suspension was filtered through a […] and transferred as a single cell suspension to culture dishes, using 5.0 mL of medium per dish. The cultures were incubated at 37 °C in an atmosphere containing 5% CO2. The culture medium consisted of Minimum Essential Medium Eagle, supplemented with L-glutamine, amino acids, vitamins, penicillin, gentamicin, sodium bicarbonate and 20% heat-inactivated horse serum. The medium was changed twice a week. After 1 week, the concentration of horse serum was reduced to 10%. After sixteen days in culture, cells were treated with 1 μg/mL of lipopolysaccharide (LPS). […] Positive controls were treated only with LPS, while negative controls were treated with complete medium. After 72 h of incubation, cells were counted, and 2.5 mL of the supernatants were collected from each well and frozen at −40 °C for cytokine analyses. All experiments were carried out twice.
(§2) The supernatants obtained from cell cultures were analyzed for TNF-α, IL-1β, IL-4, IL-6, IL-8, IL-10 and IL-18 using commercially available ELISA kits following the manufacturers’ instructions. All samples were assayed in duplicate, and equivocal results were repeated. The cytokine concentration was calculated from a standard curve of the corresponding recombinant cytokine.
(§3) The cytotoxicity of the compounds was measured by the colorimetric methyl thiazol tetrazolium (MTT) assay and scored as a percentage of the absorbance reduction of treated cultures versus untreated control cultures. Primary microglial cell cultures were seeded into 96-well microplates at 10^4 cells per well and allowed to grow for 24 h. […] […] Different concentrations of the compounds were added to each well, and Tamoxifen was used as a positive control, with concentrations ranging from 50 to 1.56 μg/mL. Plates were incubated at 37 °C for 72 h under 5% CO2 atmosphere. Then, the 50 μL of MTT-PBS solution in culture medium were added to each well. The plates were further incubated for 4 h under the same conditions. The medium was then removed and replaced with 200 μL of DMSO to solubilize the MTT formazan product. The solutions were shaken for 20 min, and the absorbance was measured at 570 nm. […] Each value represents the mean of triplicate determinations. The IC50 values were calculated from the compound concentration-response curves.

IL-6 = IL-6 release in supernatants of LPS-treated primary microglial cells (ELISA); assay type: cell-based, Wistar rats; settings: 72 h; for IL-6 release: LPS-treated
Method: as §1, §2
(§4) The cytotoxicity of the compounds was measured by the colorimetric methyl thiazol tetrazolium (MTT) assay and scored as a percentage of the absorbance reduction of treated cultures versus untreated control cultures. Primary microglial cell cultures were seeded into 96-well microplates at 10^4 cells per well and allowed to grow for 24 h. […] The compounds were serially diluted in complete culture medium with two-fold dilutions (100, 50, 25, 12.5, 6.25, 3.12 and 1.56 μg/mL for in vitro cytotoxicity; 12.5, 6.25, 3.12, 1.56, 0.78 and 0.39 μg/mL for cytokine release). Different concentrations of the compounds were added to each well, and Tamoxifen was used as a positive control, with concentrations ranging from 50 to 1.56 μg/mL. Plates were incubated at 37 °C for 72 h under 5% CO2 atmosphere. Then, the 50 μL of MTT-PBS solution in culture medium were added to each well. The plates were further incubated for 4 h under the same conditions. The medium was then removed and replaced with 200 μL of DMSO to solubilize the MTT formazan product. The solutions were shaken for 20 min, and the absorbance was measured at 570 nm. […] Each value represents the mean of triplicate determinations. The IC50 values were calculated from the compound concentration-response curves.

[1] = MTT cytotoxicity assay on primary microglial cell cultures; assay type: cell-based, Wistar rats; settings: Wistar, rat, mean of triplicate
Method: Primary microglial cell cultures were prepared from brains of newborn Wistar rats. Ethics approval for the experiments was granted by the EBIOTEC Review Board (Valter Lombardi, Iván Carrera and Lucía Fernández-Novoa; Project Identification Code: Sinularia Project October 2013; approved 30 October 2013). The neocortex of one-day-old postnatal rats was aseptically dissected out, and the meninges and blood vessels were carefully removed. Following cutting in a medium containing 20% horse serum, the suspension was filtered through a […] and transferred as a single cell suspension to culture dishes, using 5.0 mL of medium per dish. The cultures were incubated at 37 °C in an atmosphere containing 5% CO2. The culture medium consisted of Minimum Essential Medium Eagle, supplemented with L-glutamine, amino acids, vitamins, penicillin, gentamicin, sodium bicarbonate and 20% heat-inactivated horse serum. The medium was changed twice a week. After 1 week, the concentration of horse serum was reduced to 10%. After sixteen days in culture, cells were treated with 1 μg/mL of lipopolysaccharide (LPS). After six hours, different concentrations (1.0 μg/mL, 2.5 μg/mL and 5.0 μg/mL) of Compounds 1–4 and 6 were added to each well, and plates were incubated for 72 h at 37 °C in an atmosphere containing 5% CO2. Positive controls were treated only with LPS, while negative controls were treated with complete medium. After 72 h of incubation, cells were counted, and 2.5 mL of the supernatants were collected from each well and frozen at −40 °C for cytokine analyses. All experiments were carried out twice.
The cytotoxicity of the compounds was measured by the colorimetric methyl thiazol tetrazolium (MTT) assay and scored as a percentage of the absorbance reduction of treated cultures versus untreated control cultures. Primary microglial cell cultures were seeded into 96-well microplates at 10^4 cells per well and allowed to grow for 24 h. The initial concentration of Compounds 1–4 and 6 was 100 μg/mL in DMSO. The compounds were serially diluted in complete culture medium with two-fold dilutions (100, 50, 25, 12.5, 6.25, 3.12 and 1.56 μg/mL for in vitro cytotoxicity; 12.5, 6.25, 3.12, 1.56, 0.78 and 0.39 μg/mL for cytokine release). Different concentrations of the compounds were added to each well, and Tamoxifen was used as a positive control, with concentrations ranging from 50 to 1.56 μg/mL. Plates were incubated at 37 °C for 72 h under 5% CO2 atmosphere. Then, the 50 μL of MTT-PBS solution in culture medium were added to each well. The plates were further incubated for 4 h under the same conditions. The medium was then removed and replaced with 200 μL of DMSO to solubilize the MTT formazan product. The solutions were shaken for 20 min, and the absorbance was measured at 570 nm. […] Each value represents the mean of triplicate determinations. The IC50 values were calculated from the compound concentration-response curves.

TNF-α = TNF-α release in supernatants of LPS-treated primary microglial cells (ELISA); assay type: cell-based, Wistar rats; settings: 72 h; for TNF-α release: LPS-treated
Method: as §1, §2, §4

IL-10 = IL-10 release in supernatants of LPS-treated primary microglial cells (ELISA); assay type: cell-based, Wistar rats; settings: 72 h; for IL-10 release: LPS-treated
Method: as §1, §2, §4

IL-1β = IL-1β release in supernatants of LPS-treated primary microglial cells (ELISA); assay type: cell-based, Wistar rats; settings: 72 h; for IL-1β release: LPS-treated
Method: as §1, §2, §4

IL-8 = IL-8 release in supernatants of LPS-treated primary microglial cells (ELISA); assay type: cell-based, Wistar rats; settings: 72 h; for IL-8 release: LPS-treated
Method: as §1, §2, §4

IL-4 = IL-4 release in supernatants of LPS-treated primary microglial cells (ELISA); assay type: cell-based, Wistar rats; settings: 72 h; for IL-4 release: LPS-treated
Method: as §1, §2, §3

CHIKV replicon [2] = assay: CHIKV replicon assay, Cell-IQ live cell imaging, EGFP fluorescence intensity; settings: 48 h; for decrease in EGFP marker fluorescence intensity: 50 and 100 μM
CHIKV replicon [3] = assay: microbe, parasite or virus in culture; settings: Chikungunya virus; for inhibition at 100 µM: 48 h, read-out: inhibition of the CHIKV replicon (Rluc marker levels)
BHK-CHIKV-NCT cells [4] = assay: Cell-IQ live cell imaging, cytotoxicity by cell classification (viable cells); settings: 48 h, control compounds
BHK-CHIKV-NCT cells [5] = assay: Cytotoxicity assay by ATP quantitation (CellTiter GLO)

Work on `C=C(C)[C@@H]1C/C=C(\C(=O)OC)CC(=O)C[C@]2(C)CC(=O)[C@H](CC(=O)C1)O2` [Compound 4] yielded an IL-18 release (IL-18; C2: 2.5 μg/mL) of 312 ± 8.2 pg/mL, an IL-18 release (IL-18; C3: 5.0 μg/mL) of 312 ± 8.2 pg/mL and an IC50 (IL-18; Rattus norvegicus, read-out: IL-18 IC50) greater than 12.5 µg/mL. It also gave an IL-6 release (IL-6; C1: 1.0 μg/mL) of 12.1 ± 1.3 pg/mL, an IL-6 release (IL-6; C2: 2.5 μg/mL) of 14.1 ± 1.1 pg/mL and an IL-6 release (IL-6; C3: 5.0 μg/mL) of 12.1 ± 1.3 pg/mL. It also gave an IC50 (IL-6; Rattus norvegicus, read-out: IL-6 IC50) greater than 12.5 µg/mL, an IC50 at 72 h [1] greater than 100 µg/mL and a TNF-α release (TNF-α; C1: 1.0 μg/mL) of 33.2 ± 2.8 pg/mL. It also gave a TNF-α release (TNF-α; C2: 2.5 μg/mL) of 29.8 ± 2.5 pg/mL, a TNF-α release (TNF-α; C3: 5.0 μg/mL) of 32.5 ± 3.7 pg/mL and an IC50 (TNF-α; Rattus norvegicus, read-out: TNF-α IC50) greater than 12.5 µg/mL. It also gave an IL-10 release (IL-10; C1: 1.0 μg/mL) of 8.4 ± 2.6 pg/mL, an IL-10 release (IL-10; C2: 2.5 μg/mL) of 7.9 ± 2.5 pg/mL and an IL-10 release (IL-10; C3: 5.0 μg/mL) of 7.8 ± 3.2 pg/mL. The IC50 (IL-10; Rattus norvegicus, read-out: IL-10 IC50) was greater than 12.5 µg/mL, the IL-1β release (IL-1β; C1: 1.0 μg/mL) was 1.01 ± 0.04 pg/mL and the IL-1β release (IL-1β; C2: 2.5 μg/mL) was 1.02 ± 0.04 pg/mL. For the same compound, the IL-1β release (IL-1β; C3: 5.0 μg/mL) was 1.01 ± 0.02 pg/mL, the IC50 (IL-1β; Rattus norvegicus, read-out: IL-1β IC50) was greater than 12.5 µg/mL and the IL-8 release (IL-8; C2: 2.5 μg/mL) was 247 ± 8 pg/mL. The IL-8 release (IL-8; C3: 5.0 μg/mL) was 247 ± 8 pg/mL, the IC50 (IL-8; Rattus norvegicus, read-out: IL-8 IC50) was greater than 12.5 µg/mL and the IL-4 release (IL-4; C1: 1.0 μg/mL) was 2.2 ± 0.2 pg/mL. It also gave an IL-4 release (IL-4; C2: 2.5 μg/mL) of 2.3 ± 0.5 pg/mL, an IL-4 release (IL-4; C3: 5.0 μg/mL) of 1.8 ± 0.2 pg/mL and an IC50 (IL-4; Rattus norvegicus, read-out: IL-4 IC50) greater than 12.5 µg/mL.

For `C=C1/C=C/[C@H](C(C)C)CCC(=C)[C@H](O)CC1` [Compound 5, ent-germacra-4(15),5E,10(14)-trien-1β-ol], the “decrease in EGFP marker fluorescence intensity” value (CHIKV replicon [2]) was “only moderate decreases” and the inhibition at 100 µM (CHIKV replicon [3]) was 0.5 to 63%.

In the case of `O=c1cnn([C@@H]2O[C@H](CO)[C@@H](O)[C@H]2O)c(=O)[nH]1` [Compound 6-azauridine, 6-azauridine, reference compound], the “effect of control compound on fluorescence intensity” value (CHIKV replicon [2]; control compounds) is reported as “decreases the fluorescence intensity”, the “effect of control compound on number of viable cells / cell morphology” value (BHK-CHIKV-NCT cells [4]) is reported as “without affecting cell morphology” and the IC50 (CHIKV replicon [3]; read-out: IC50, inhibition of replicon (Rluc detection)) is reported as 2000 nM. It also gave an inhibition at 10 µM (CHIKV replicon [3]; read-out: average inhibition (Rluc)) of 69%.

With `C=C(C)C1CC(=O)C2C3C(=O)CC(C=C3C(C)=O)C(C(=O)O)C2C1` (stereo not drawn) [Compound 7, kavaranolide] the “decrease in EGFP marker fluorescence intensity” value (CHIKV replicon [2]) was “only moderate decreases” and the inhibition at 100 µM (CHIKV replicon [3]) was 0.5 to 63%.

`CC/C(=C(\c1ccccc1)c1ccc(OCCN(C)C)cc1)c1ccccc1` [Tamoxifen, reference compound] gave an IC50 at 72 h [1] of 3.6 µg/mL (≈ 9.69 µM).

For polymyxin B [reference compound], the average toxicity (BHK-CHIKV-NCT cells [5]; 10,000 IU/mL) was 93%, the “ED50 for the cytotoxic activity” value (BHK-CHIKV-NCT cells [5]; positive control) was 5900 IU/mL and the “effect of control compound on number of viable cells / cell morphology” value (BHK-CHIKV-NCT cells [4]) was “radically decreases”.
